According to patent publication US20070078262A1, “Thiomorpholino steroid compounds, the use thereof for the preparation of meiosis-regulating medicaments and method for the preparation thereof” (SCHERING AKTIENGESELLSCHAFT, priority 2003, published 2007):

System: Cumulus Enclosed Oocytes (CEOs)
Experiment: Cumulus enclosed oocyte assay (meiosis activation in Hx-medium)
Assay type: cell-based, mice (C57BL/6J×DBA/2J F1)
Description: Activation of MI arrested oocytes can be assessed by the disappearance of the germinal vesicle (GV). The disappearance of the GV, called germinal vesicle breakdown (GVB) is followed by the extrusion of the first polar body (PB) (C. Grøndahl, J. L. Ottesen, M. Lessi, P. Faarup, A. Murray, F C Grønvald, C. Hegele-Hartung, I. Ahnfelt-Rønne, “Meiosis-activating sterol promotes resumption of meiosis in mouse oocytes cultured in vitro in contrast to related oxysterols”, Biol. Reprod., 58, 1297-1302 (1998); C. Hegele-Hartung, J. Kuhnke, M. Lessi, C. Grøndahl, J. Ottesen, H. M. Beier, S. Eisner, U. Eichenlaub-Ritter, “Nuclear and cytoplasmic maturation of mouse oocytes after treatment with synthetic meiosis-activating sterol in vitro”, Biol. Reprod., 61, 1362-1372 (1999)).
Cumulus Enclosed Oocytes (CEOs) were obtained from immature female mice (C57BL/6J×DBA/2J F1) weighing 13-16 grams, that were kept under controlled temperature (20-22° C.), light (lights on 06:00-18:00) and relative humidity (50-70%). The mice received an intra-peritoneal injection of 0.2 ml gonadotropins containing 20 IU FSH. 48 hours later the animals were killed by cervical dislocation. The ovaries were dissected out and the oocytes were isolated in Hx-medium (see below) under a stereomicroscope by manual rupture of the follicles using a pair of 27-gauge needles. Cumulus enclosed oocytes displaying an intact germinal vesicle were placed in α-minimum essential medium (α-MEM without ribonucleosides supplemented with 8 mg/ml Human Serum Albumin (HSA), 0.23 mM pyruvate, 2 mM glutamine, 100 IU/ml penicillin and 100 μg/ml streptomycin). To maintain the oocytes in the germinal vesicle stage this medium was supplemented with 3 mM hypoxanthine, designated as Hx-medium.
The CEOs (35-45 CEOs in 0.4 ml Hx-medium) were cultured in a humidified atmosphere of 5% CO2 in air for 24 hours at 37° C. One control well (identical medium with no addition of test compound) was always cultured simultaneously with test wells.
By the end of the culture period the number of CEOs with germical vesicle (GV), germinal vesicle breakdown (GVB) and polar bodies (PB), respectively, were counted. The % GVB, defined as the percentage of CEOs undergoing GVB per total number of CEOs in that well, was calculated as: % GVB=(number of GVB+number of PB/total number of CEOs)×100
The % PB was defined as the percentage of CEOs displaying one extruded polar body per total number of CEOs in that well.
For each compound two experiments were performed and the results compared to Hx-medium as a control and FF-MAS at a concentration of 10 μM.

## C[C@H](CN1CCSCC1)[C@H]1CC=C2C3=C(CC[C@@]21C)[C@@]1(C)CC[C@H](O)C(C)(C)[C@@H]1CC3 [Compound IA, (20S)-20-[(thiomorpholin-4-yl)methyl]-4,4-dimethyl-5α-pregna-8,14-dien-3β-ol]
CEOs in the presence of Hx
  efficiency of meiosis activation among the compounds tested: the most efficient compound tested
At 1 μM (p<0.01; n=10), 3 μM (p<0.05; n=7) and 10 μM (p<0.001; n=6)
  meiosis activation in CEOs monitored by GVB and PB (FIG. 2): significantly improved meiosis activation
